Source: paper PMC2574679 (Journal of the American Chemical Society, 2008)
pIC50: −log10 of the molar value.

Target: Bcl-XL (Homo sapiens, UniProt Q07817)
Assay type: binding

Sequence of Bcl-XL (Q07817 whole entry): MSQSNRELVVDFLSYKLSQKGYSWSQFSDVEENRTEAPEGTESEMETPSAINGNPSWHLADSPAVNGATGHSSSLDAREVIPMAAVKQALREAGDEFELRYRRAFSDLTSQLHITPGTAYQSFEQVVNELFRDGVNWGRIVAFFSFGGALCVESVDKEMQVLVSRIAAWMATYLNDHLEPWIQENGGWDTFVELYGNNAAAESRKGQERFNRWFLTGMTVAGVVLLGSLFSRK

Structure (SMILES): CC1(C)CCN(c2ccc(C(=O)NS(=O)(=O)c3ccc(NCCSc4ccccc4)c([N+](=O)[O-])c3)cc2)CC1 [SZ4TA2]
- pIC50: 7.10
